Test results reported in patent US7452865B2, “Antagonistic analogs of GH RH (2003)” (The Administrare's of the Tulane Educational Fund, priority 2004, dated 2008).
Marks after values point to notes of the source that are not given here. Square brackets hold non-standard residues; d marks the D form. Peptide text beside a SMILES is read from it. * marks the point of attachment. Phe(4-amidino) = N=C(N)c1ccc(C[C@H](N)C(=O)O)cc1; Phe(4-Cl) = N[C@@H](Cc1ccc(Cl)cc1)C(=O)O; hArg = N=C(N)NCCCC[C@H](N)C(=O)O; Nle = CCCC[C@H](N)C(=O)O; Abu = CC[C@H](N)C(=O)O; PhAc = O=C(Cc1ccccc1)*

Legend:
mRNA for IGF-II = experiment: DMS-153 human SCLC xenografts: expression of mRNA for IGF-II; format: in vivo, nude mice; details: 10 μg/day s.c., 6 weeks, control group 100±1.5%
Method: (§1) Male nude mice were implanted s.c. with 3 mm^3 pieces of DMS-153 human SCLC tissue. When tumors reached a volume of approx. 100 mm^3 the mice were divided into 3 experimental groups of 68 animals each and received the following treatment for 6 weeks group 1 (control), vehicle solution; group 2, Peptide 67 (10 μg/day s.c.); group 3, Peptide 31 (10 μg/day s.c.). Tumor volumes were recorded twice a week. At the end of treatment, mice were anesthetized with isoflurane, killed by decapitation, trunk blood was collected for measurement of serum IGF-I, and tumors were excised and weighed. Data are presented as means±S.E. Data were evaluated by one way ANOVA and the Student-Newman-Keuls test.

[1] = test system: HT-29 human colon cancer xenografts; experiment: HT-29 human colon cancer xenografts in nude mice: tumor growth; format: in vivo; details: 10 μg/day s.c., 62 days
Method: HT-29 human colon cancers were transplanted sc. into male nude mice. 19 days after transplantation, the mice were divided into two groups of 10 animals each. and the treatment was started. Mice in the treatment group received single daily injections of Peptide 67 sc. at a dose of 10 μg/day for 62 days, while the control group was injected with the vehicle solvent. Tumors were measured regularly, and tumor volume was calculated. The mice were sacrificed at the end of experiment and tumor weights were measured.

[2] = test system: H-69 human SCLC xenografts; experiment: H-69 human SCLC xenografts in nude mice: tumor growth; format: in vivo; details: H-69
Method: Male nude mice were implanted s.c. with 3 mm^3 pieces of H-69 human SCLC tissue. When tumors reached a volume of approx. 80 mm^3 the mice were divided into 4 experimental groups of 7-8 animals each and received the following treatment for 4 weeks: group I (control), vehicle solution; group 2, Peptide 67 (10 μg/day s.c.); group 3, Peptide 31 (10 μg/day s.c.); group 4, Peptide 72 (10 μg/day s.c.). Tumor volumes were recorded twice a week. At the end of treatment, mice were anesthetized with isoflurane, killed by decapitation, and tumors were excised and weighed. Data are presented as means±S.E. Data were evaluated by one way ANOVA and the Student-Newman-Keuls test.

IGF-I = experiment: PC-3 xenografts, Experiment 1: serum IGF-I (RIA); format: in vivo, nude mice; details: 10 μg/day s.c., 28 days
Summary of the method: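 Male nude mice bearing s.c. PC-3 prostate tumors (~50 mm^3) given single daily s.c. injections, 10 μg/day, for 28 days, sacrificed day 29. IGFs acid-ethanol extracted from serum or tumor cytosol, then measured by RIA against IGF-I or recombinant human IGF-II standards.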

[3] = test system: DMS-153 human SCLC xenografts; experiment: DMS-153 human SCLC xenografts in nude mice: tumor growth; format: in vivo
Method: as §1

[4] = test system: GH-RH receptor isoforms on membrane fractions of human PC-3 prostate tumors; format: binding; details: general statement
Summary of the method: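 Competitive displacement of [^125I]JV-1-42 from crude membranes of human PC-3 prostate tumours grown as nude-mouse xenografts, with unlabelled peptides at 10^−12 to 10^−6 M. Bound radioactivity in the centrifuged pellet gamma-counted; Ki from Munson–Rodbard analysis. Relative affinity = Ki of reference peptide (JV-1-36 or JV-1-38) / Ki of test antagonist.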

[5] = 10 μg/day s.c., 6 weeks, vs control

## CCCC[C@H](NC(=O)[C@@H](NC(=O)[C@H](CC(=O)O)NC(=O)[C@H](CCC(N)=O)NC(=O)[C@H](CC(C)C)NC(=O)[C@H](CC(C)C)NC(=O)[C@H](CCCCN)NC(=O)[C@H](CCCNC(=N)N)NC(=O)[C@H](C)NC(=O)[C@H](CO)NC(=O)[C@H](CC(C)C)NC(=O)[C@H](CCC(N)=O)NC(=O)[C@H](CC)NC(=O)[C@H](CC(C)C)NC(=O)[C@@H](NC(=O)[C@H](CCCCN)NC(=O)[C@H](CCCNC(=N)N)NC(=O)[C@H](Cc1ccc(OC)cc1)NC(=O)[C@H](Cc1ccc(C(=N)N)cc1)NC(=O)[C@H](CC(N)=O)NC(=O)[C@@H](NC(=O)[C@H](Cc1ccc(Cl)cc1)NC(=O)[C@@H](NC(=O)[C@H](C)NC(=O)[C@H](CC(=O)O)NC(=O)[C@@H](CCCNC(=N)N)NC(=O)[C@H](Cc1ccc(O)cc1)NC(=O)Cc1ccccc1)[C@@H](C)CC)[C@@H](C)O)C(C)C)[C@@H](C)CC)C(=O)N[C@H](CCCNC(=N)N)C(=O)N[C@@H](CCCCNC(=N)N)C(N)=O [Peptide 67, [PhAc-Tyr^1, D-Arg^2, Phe(pCl)^6, Amp^9, Tyr(Me)^10, Abu^15, Nle^27, D-Arg^28, Har^29]hGH-RH(1-29)NH2] (PhAc-Y[dR]DAI[Phe(4-Cl)]TN[Phe(4-amidino)]Y(Me)RKVL[Abu]QLSARKLLQDI[Nle][dR][hArg]-NH2)
mRNA for IGF-II
  level of expression of mRNA for IGF-II: 78.0±44.3%
[1]
  Final tumor volume (mm^3): 1218 ± 320* mm^3
  Tumor weight: 1434 ± 405 mg
[1]; vs control group
  inhibition in the volumes of HT-29 tumors: 56.3%
  inhibition in the weights of HT-29 tumors: 53.9%
[2]; 10 μg/day s.c., 4 weeks
  Tumor volume (mm^3) Final: 501 ± 35* mm^3
[2]; 10 μg/day s.c., 4 weeks, vs control
  Tumor volume Final (% inhibition): (76%)
[2]; at start of treatment
  Tumor volume (mm^3) Initial: 82 ± 10 mm^3
IGF-I
  Serum IGF-I: 128 ± 10.6 ng/mL
IGF-I; vs control
  Serum IGF-I (% inhibition): (14%)
[3]; 10 μg/day s.c., 6 weeks
  Tumor volume (mm^3) Final: 2650 ± 30* mm^3
  Tumor weight: 1.60 ± 0.19 g
[3]; [5]
  Tumor volume Final (% inhibition): (28%)
  Tumor weight (% inhibition): (31%)
[3]; at start of treatment
  Tumor volume (mm^3) Initial: 132 ± 24 mm^3
[4]
  binding affinities to the tumoral receptors for GH-RH (in words): extremely high binding affinities
